# T1: endogenous TIFA (Homo sapiens, UniProt Q96CG3)
# T1 construct: endogenous in cells; host or cells: U937 cells (retrovirally transduced with Myc-tagged TIFA fragments)
# T1 sequence (Q96CG3 1-184): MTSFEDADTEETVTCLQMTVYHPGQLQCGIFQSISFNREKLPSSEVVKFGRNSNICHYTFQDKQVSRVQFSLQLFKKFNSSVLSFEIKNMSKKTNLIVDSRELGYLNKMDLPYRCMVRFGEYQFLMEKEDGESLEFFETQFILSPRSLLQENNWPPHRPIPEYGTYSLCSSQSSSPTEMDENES
# Experiments:
# AML PBMCs = assay: WST-1 viability and chemosensitivity of freshly isolated AML PBMCs; type: cell-based, human; settings: TIFA silencing
# From the text: Hela, 293T, and HL-60 cell lines were obtained from Dr. Li-Jung Juan of Academia Sinica (Taipei, Taiwan, 2014), KG-1 cell line was obtained from Prof. Shih-Lan Hsu of Taichung Veterans General Hospital (Taichung, Taiwan, 2015), and the rest of cell lines were obtained from Dr. Shui-Tein Chen of Academia Sinica (Taipei, Taiwan, 2015). All cell lines were expanded and stored in liquid nitrogen when received. Original vials were thawed for these experiments and authenticated simultaneously by STR DNA fingerprinting using the Promega GenePrint® 10 System and analyzed by ABI PRISM 3730 GENETIC ANALYZER and GeneMapper® softeware. All resulting SI R profiles were matched with known ATCC fingerprints (ATCC.org). Maintenance of respective cell lines followed our previous protocols (20,27,28). 293T and HeLa cells were maintained in Dulbecco's modified Eagle's medium (DMEM, Gibco). […] All media were supplemented with 10% decomplemented fetal bovine serum (FBS, Gibco), […] L-glutamine (Gibco), 100 U/mL penicillin (Gibco) and 100 μg/mL streptomycin (Gibco). All cells were incubated in a humidified atmosphere at 37° C. with 5% CO2. To isolate human PBMCs, freshly acquired whole bloods were layered over Ficoll (GE healthcare) as previously described (28). Isolated primary cells were maintained according to a previously described protocol (29) and subjected to experimental analyses within two weeks. […]
# [1] = system: AML cell lines HL-60, KG-1, THP-1, and U937; assay: WST-1 viability assay, growth of AML lines; type: cell-based; settings: WST-1, time course after TIFA silencing
# Method: (§1) To silence specific genes, 6×10^5293T cells or 10^6 suspension cells were transfected with 30 pmol (293T cells) or 50 pmol (suspension cells) of indicated siRNA supplemented with 9 or 15 μL of Lipofectamine RNAiMAX (Invitrogen) in the presence of Opti-MEM (Invitrogen) according to the manufacturer's instruction. Six hours after primary transfection, cells were incubated with the regular medium for 24 h, and the secondary siRNA transfection was performed with the same protocol. Cells or conditional media were collected after 72 h of incubation.
# (§2) A total of 10^5 suspension cells under indicated condition were seeded per well in 96-well plates and cell viability was analyzed at the indicated time point post treatment.
# NF-κB = assay: Luciferase reporter assay and western blot for NF-κB activity; type: cell-based; settings: for TNF-α-dependent NF-κB activation and elevations of NF-κB signaling factors: U937 cells stably expressing the fragment, 10 ng/mL TNF-α for 30 min
# Method: After 5 repeated freeze-thaw cycles, cell extracts were cleared by centrifugation at 4° C. Cell extracts were quantified using Bradford assay, and equal amounts of soluble proteins were mixed with SDS sample buffer, boiled, separated by SDS-PAGE, and blotted onto PVDF membranes (Millipore). Membranes were then blocked for 1 h with 5% dry milk in PBST (PBS supplemented with 0.1% Tween-20) buffer and incubated for overnight at 4° C. with primary antibody diluted in PBST containing 1% bovine serum albumin (Sigma). After three washes with PBST, membranes were incubated with HRP-conjugated anti-mouse or anti-rabbit IgG. […] All western blot analyses were performed independently at least three times except that of primary PBMCs.
# Luciferase-based NF-κB reporter assay was conducted as previously described (20). A total of 6×10^5 293T or 10^6 suspension U937 Cells in one well of 6-well plates with indicated conditions were transiently transfected with 2 μg of pNF-κB-Luc reporter plasmid for 48 h before harvest. Cells were treated with 10 ng/mL TNF-α (R&D Systems) for 30 min and lysed with 1× passive lysis buffer (Promega). 100 μg of cell lysates was dispensed into a well of 96-well plate, followed by addition of 100 μL of luciferase assay buffer LARII (Promega) and 100 μL of Stop & Glo reagent (Promega). The triplicated chemiluminescence were measured by SpectraMax Paradigm Multi-Mode Plate Reader (Molecular Devices) and normalized to corresponding β-actin level from a parallel western blot analysis of cell lysates. Results were represented as relative luminescence units (RLU) from three independent experiments.
# [2] = system: acute lymphoblastic leukemia (ALL) line Jurkat and CML line K562; assay: WST-1 viability assay, proliferation of ALL and CML lines; type: cell-based
# Method: as §1, §2
# U937 cells [3] = assay: WST-1 viability of cytarabine-treated U937 cells; type: cell-based; settings: 5 μg/mL etanercept, 50 nM bortezomib, or 1 μM ABT-263 together with 10 μM cytarabine
# Method: as §2
# H446 (lung cancer cells) = assay: WST-1 cytotoxicity of anti-cancer treatments with or without TIFA silencing; settings: 4th day, Sorafenib 5 μM, Cisplatin 5 μM, Etoposide 10 μM, IR 5Gy
# Method: (§3) For transient transfection of 293T cells, 6×10^5 cells were transfected with 2 μg of indicated plasmid DNA using Jet-PEI (Polyplus Transfection) for 48 h (pCDNA3.1 vector, HA-tagged TIFA, and pNF-κB-Luc) or 24 h (Flag-tagged Aurora A) according to the manufacturer's instruction. For transient transfection of U937 cells, 10^6 suspension cells were transfected with 3 μg of the pNF-κB-Luc plasmid DNA using Lipofectamine 2000 (Invitrogen) for 48 h according to the manufacturer's instruction. To silence specific genes, 6×10^5293T cells or 10^6 suspension cells were transfected with 30 pmol (293T cells) or 50 pmol (suspension cells) of indicated siRNA supplemented with 9 or 15 μL of Lipofectamine RNAiMAX (Invitrogen) in the presence of Opti-MEM (Invitrogen) according to the manufacturer's instruction. Six hours after primary transfection, cells were incubated with the regular medium for 24 h, and the secondary siRNA transfection was performed with the same protocol. Cells or conditional media were collected after 72 h of incubation.
# as §2
# (§4) Cytotoxicity of cells at the 4th day was normalized to treatment without TIFA silencing and presented.
# [4] = system: MDA-MB-231 (breast cancer cells); assay: as above; type: cell-based; settings: 4th day, Sorafenib 5 μM, Cisplatin 5 μM, Etoposide 10 μM, IR 5Gy
# Method: as §3, §2, §4
# [5] = system: HepG2 (liver cancer cells); assay: as above; settings: 4th day, Sorafenib 5 μM, Cisplatin 5 μM, Etoposide 10 μM, IR 5Gy
# Method: as §3, §2, §4
# K562 (leukaemia cells) = assay: as above; settings: 4th day, Sorafenib 5 μM, Cisplatin 5 μM, Etoposide 10 μM, IR 5Gy
# Method: as §3, §2, §4
# J5 (liver cancer cells) = assay: as above; type: cell-based; settings: 4th day, Sorafenib 5 μM, Cisplatin 5 μM, Etoposide 10 μM, IR 5Gy
# Method: as §3, §2, §4
# [6] = system: MCF-7 (breast cancer cells); assay: as above; type: cell-based; settings: 4th day, Sorafenib 5 μM, Cisplatin 5 μM, Etoposide 10 μM, IR 5Gy
# Method: as §3, §2, §4
# THP-1 (leukaemia cells) = assay: as above; settings: 4th day, Sorafenib 5 μM, Cisplatin 5 μM, Etoposide 10 μM, IR 5Gy
# Method: as §3, §2, §4
# [7] = system: U2OS (osteosarcoma cells); assay: as above; settings: 4th day, Sorafenib 5 μM, Cisplatin 5 μM, Etoposide 10 μM, IR 5Gy
# Method: as §3, §2, §4
# [8] = system: NTera2 (testicular embryonic carcinoma); assay: as above; type: cell-based; settings: 4th day, Sorafenib 5 μM, Cisplatin 5 μM, Etoposide 10 μM, IR 5Gy
# Method: as §3, §2, §4
# [9] = system: AML lines (HL-60, KG-1, THP-1, U937); assay: WST-1 based survival test, IC50 of chemo drugs in AML lines; type: cell-based; settings: all four tested AML lines; siTIFA vs control siRNA
# [10] = system: HeLa (cervical cancer cells); assay: WST-1 cytotoxicity of anti-cancer treatments with or without TIFA silencing; settings: 4th day, Sorafenib 5 μM, Cisplatin 5 μM, Etoposide 10 μM, IR 5Gy
# Method: as §3, §2, §4
# Jurkat (leukaemia cells) = assay: as above; settings: 4th day, Sorafenib 5 μM, Cisplatin 5 μM, Etoposide 10 μM, IR 5Gy
# Method: as §3, §2, §4
# A549 (lung cancer cells) = assay: as above; settings: 4th day, Sorafenib 5 μM, Cisplatin 5 μM, Etoposide 10 μM, IR 5Gy
# Method: as §3, §2, §4
# U937 cells [11] = assay: Cytokine antibody array and ELISA of secreted cytokines; type: cell-based; settings: 10 μM cytarabine, conditioned media
# Method: Condition media from equal numbers of cultured U937 cells were collected at 72 h post indicated treatments and assessed by the Human Cytokine Array C1 according to the manufacturer's instruction (AAH-CYT-1, RayBiotech). Data were acquired using the ImageJ software and normalized to the positive controls. When indicated, the amounts of secreted cytokines and chemokines in the conditional mediums were determined by the enzyme-linked immunosorbent assay (ELISA) test kit following the manufacturer's instructions (R&D Systems). The absorbances of triplicated samples were read by SpectraMax Paradigm Plate Reader (Molecular Devices).
# endogenous TIFA = molecular target: T1, endogenous TIFA; assay: Immunoprecipitation of lysates from transduced U937 cells; type: binding; settings: U937 cells stably expressing Myc-tagged fragment; anti-Myc immunobeads, western blot
molecule,measurement,setting,value
5′-UCAGGACAAACAGGUUUCCCGAGUU-3′ [TIFA siRNA],growth of AML PBMCs,AML PBMCs; WST-1 time course,growth retardation
same,chemosensitivities of patient-derived PBMCs,"AML PBMCs; chemo drug treatments, WST-1",consistently promoted chemosensitivities
same,growth of AML cell lines,[1],attenuates the growth
same,"elevation of activated NF-κB, phosphorylated IκK and IκB, and NF-κB-driven luciferase activity","NF-κB; overexpression of Aurora A (293T) or TNF-α treatment (U937), silencing of TIFA",negated
same,cell proliferation,[2],inhibited
CC1(C)CCC(c2ccc(Cl)cc2)=C(CN2CCN(c3ccc(C(=O)NS(=O)(=O)c4ccc(N[C@H](CCN5CCOCC5)CSc5ccccc5)c(S(=O)(=O)C(F)(F)F)c4)cc3)CC2)C1 [ABT-263],cytotoxicity of cytarabine-treated U937 cells,U937 cells [3],enhanced the cytotoxicity
"COc1cc([C@@H]2c3cc4c(cc3[C@@H](O[C@@H]3O[C@@H]5CO[C@@H](C)O[C@H]5[C@H](O)[C@H]3O)[C@H]3COC(=O)[C@H]23)OCO4)cc(OC)c1O [Etoposide, etoposide]",fold change of cytotoxicity (cytotoxicity of TIFA silencing/cytotoxicity of non-silencing),H446 (lung cancer cells),1.27 fold changes
same,fold change of cytotoxicity (cytotoxicity of TIFA silencing/cytotoxicity of non-silencing),[4],1.46 fold changes
same,fold change of cytotoxicity (cytotoxicity of TIFA silencing/cytotoxicity of non-silencing),[5],1.61 fold changes
same,fold change of cytotoxicity (cytotoxicity of TIFA silencing/cytotoxicity of non-silencing),K562 (leukaemia cells),2.28 fold changes
same,fold change of cytotoxicity (cytotoxicity of TIFA silencing/cytotoxicity of non-silencing),J5 (liver cancer cells),1.64 fold changes
same,fold change of cytotoxicity (cytotoxicity of TIFA silencing/cytotoxicity of non-silencing),[6],1.30 fold changes
same,fold change of cytotoxicity (cytotoxicity of TIFA silencing/cytotoxicity of non-silencing),THP-1 (leukaemia cells),1.59 fold changes
same,fold change of cytotoxicity (cytotoxicity of TIFA silencing/cytotoxicity of non-silencing),[7],1.48 fold changes
same,fold change of cytotoxicity (cytotoxicity of TIFA silencing/cytotoxicity of non-silencing),[8],1.15 fold changes
same,decrease in IC50 of the chemo drug under TIFA silencing,[9],ca. 50%
same,fold change of cytotoxicity (cytotoxicity of TIFA silencing/cytotoxicity of non-silencing),[10],1.29 fold changes
same,fold change of cytotoxicity (cytotoxicity of TIFA silencing/cytotoxicity of non-silencing),Jurkat (leukaemia cells),1.79 fold changes
same,fold change of cytotoxicity (cytotoxicity of TIFA silencing/cytotoxicity of non-silencing),A549 (lung cancer cells),1.77 fold changes
"CNC(=O)c1cc(Oc2ccc(NC(=O)Nc3ccc(Cl)c(C(F)(F)F)c3)cc2)ccn1 [Sorafenib, sorafenib]",fold change of cytotoxicity (cytotoxicity of TIFA silencing/cytotoxicity of non-silencing),[6],1.47 fold changes
Cc1cc(Nc2cc(N3CCN(C)CC3)nc(Sc3ccc(NC(=O)C4CC4)cc3)n2)n[nH]1 [VX680],cell proliferation,[2],inhibited
CC(C)C[C@H](NC(=O)[C@H](Cc1ccccc1)NC(=O)c1cnccn1)B(O)O [bortezomib],cytotoxicity of cytarabine-treated U937 cells,U937 cells [3],enhanced the cytotoxicity
Nc1ccn([C@@H]2O[C@H](CO)[C@@H](O)[C@@H]2O)c(=O)n1 [cytarabine],secretion of IL-6,U937 cells [11],suppressed
same,"secretion of TNF-α, CXCL-1, and IL-8",U937 cells [11],promoted
same,decrease in IC50 of the chemo drug under TIFA silencing,[9],ca. 50%
CC(=O)[C@]1(O)Cc2c(O)c3c(c(O)c2[C@@H](O[C@H]2C[C@H](N)[C@H](O)[C@H](C)O2)C1)C(=O)c1ccccc1C3=O [idarubicin],decrease in IC50 of the chemo drug under TIFA silencing,[9],ca. 50%
etanercept,cytotoxicity of cytarabine-treated U937 cells,U937 cells [3],enhanced the cytotoxicity
"F2F3: dominant-negative TIFA fragment: dimerization-core (F2) plus TRAF6/TRAF2 interacting segment (F3), Myc-tagged, expressed by retroviral transduction (protein, left off: small tags and cut ends) VVKFGRNSNICHYTFQDKQVSRVQFSLQLFKKFNSSVLSFEIKNMSKKTNLIVDSRELGYLNKMDLPYRCMVRFGEYQFLMEKEDGESLEFFETQFILSPRSLLQENNWPPHRPIPEYGTYSLCSSQSSSPTEMDENES",TNF-α-dependent NF-κB activation and elevations of NF-κB signaling factors,NF-κB,attenuated
same,pull down of endogenous TIFA,endogenous TIFA,able to pull down endogenous TIFA
"F1F2: dominant-negative TIFA fragment: Thr9 segment (F1) plus dimerization-core (F2), Myc-tagged, expressed by retroviral transduction (protein, left off: small tags and cut ends, dominant-negative TIFA fragment: Thr9 segment (F1) plus dimerization-core (F2), Myc-tagged, expressed by retroviral transduction) MTSFEDADTEETVTCLQMTVYHPGQLQCGIFQSISFNREKLPSSEVVKFGRNSNICHYTFQDKQVSRVQFSLQLFKKFNSSVLSFEIKNMSKKTNLIVDSREL",TNF-α-dependent NF-κB activation and elevations of NF-κB signaling factors,NF-κB,attenuated
same,pull down of endogenous TIFA,endogenous TIFA,able to pull down endogenous TIFA
